Laboratory results: ChEMBL document CHEMBL4402596, “Pyridine-Embedded Phenothiazinium Dyes as Lysosome-Targeted Photosensitizers for Highly Efficient Photodynamic Antitumor Therapy” (J Med Chem, 2020)
pIC50: −log10 of the molar value. The source made the active and inactive calls. No cut-off for these calls is given here.

Tests used:
HT-29 [1] = assay: Ratio of IC50 for cytotoxicity against human HT-29 cells in dark to IC50 for cytotoxicity against human HT-29 cells in light at 3.2J/cm2
[2] = Drug localization in lysosome of human HT-29 cells at 0.5 uM measured after 1 hr in dark by Lyso-tracker based confocal laser scanning microscopy; type: ADME, subcellular; conditions: ht-29, 1 h
MCF7 [3] = assay: Ratio of IC50 for cytotoxicity against human MCF7 cells in dark to IC50 for cytotoxicity against human MCF7 cells in light at 3.2J/cm2
MCF7 [4] = assay: Cytotoxicity against human MCF7 cells assessed as reduction in cell viability incubated for 1 hr followed by light irradiation for 30 sec at 3.2 J/cm2 and measured after 24 hrs by MTT assay; type: functional, cell-based; conditions: MCF7, light or radiation study
HT-29 [5] = assay: Cytotoxicity against human HT-29 cells assessed as reduction in cell viability preincubated for 1 hr followed by light irradiation at 3.2 J/cm2 for 30 sec and measured after 24 hrs by MTT assay; type: functional, cell-based; conditions: HT-29, light or radiation study
A549 [6] = assay: Cytotoxicity against human A549 cells assessed as reduction in cell viability incubated for 1 hr followed by light irradiation at 3.2 J/cm2 for 30 sec and measured after 24 hrs by MTT assay; type: functional, cell-based; conditions: A549, light or radiation study
MCF7 [7] = assay: Cytotoxicity against human MCF7 cells assessed as reduction in cell viability incubated for 24 hrs in dark by MTT assay; type: cell-based; conditions: MCF7, 24 h
A549 [8] = assay: Cytotoxicity against human A549 cells assessed as reduction in cell viability incubated for 24 hrs in dark by MTT assay; type: cell-based; conditions: A549, 24 h
A549 [9] = assay: Ratio of IC50 for cytotoxicity against human A549 cells in dark to IC50 for cytotoxicity against human A549 cells in light at 3.2J/cm2
HT-29 [10] = assay: Induction of ROS generation in human HT-29 cells at 0.5 uM incubated for 0.5 hrs followed by DCFH-DA addition for 0.5 hrs then irradiated with light for 30 sec and measured after 15 mins by flow cytometry; type: functional, cell-based
[11] = Photostability of compound assessed as decrease in rate of photo decomposition at 5 uM irradiated with LED light (630 nm, 106 mW cm'-2) upto 12 mins by UV spectrophotometry
[12] = Induction of singlet oxygen generation in EtOH assessed as singlet oxygen quantum yield irradiated with 12.8 J light for 2 mins by DPBF-based assay; type: functional
HT-29 [13] = assay: Cytotoxicity against human HT-29 cells assessed as reduction in cell viability preincubated for 1 hr followed by light irradiation at 3.2 J/cm2 for 10 to 180 secs and measured after 24 hrs by MTT assay; type: functional, cell-based
HT-29 [14] = assay: Cytotoxicity against human HT-29 cells assessed as reduction in cell viability incubated for 24 hrs in dark by MTT assay; type: cell-based; conditions: HT-29, 24 h
[15] = Drug uptake in nucleus of human HT-29 cells at 0.5 uM incubated for 5 hrs by Hoechst 33342 staining based fluorescence microscopy; type: ADME, cell-based; conditions: ht-29, 5 h
HT-29 [16] = assay: Induction of morphological changes in nucleus of human HT-29 cells at 0.5 uM incubated for 18 hrs in dark by Hoechst 33342 staining based fluorescence microscopy; type: cell-based; conditions: ht-29, 18 h
[17] = Toxicity in BALB/c mouse xenografted with human HT-29 cells assessed as damage in kidney at 2 mg/kg, iv after 2 hrs irradiated with light and measured on day 24; type: organism-based; conditions: in vivo
[18] = Toxicity in BALB/c mouse xenografted with human HT-29 cells assessed as damage in spleen at 2 mg/kg, iv after 2 hrs irradiated with light and measured on day 24; type: organism-based; conditions: in vivo
[19] = MRT (0 to infinity) in Sprague-Dawley rat at 2 mg/kg, iv measured upto 24 hrs by fluorescence based assay; type: ADME, organism-based; conditions: in vivo
[20] = Drug localization in lysosome of human WI38 cells at 0.5 uM measured after 1 hr by LAMP1-GFP based confocal laser scanning microscopy; type: ADME, subcellular; conditions: wi-38, 1 h
[21] = AUC (0 to t) in Sprague-Dawley rat at 2 mg/kg, iv measured upto 24 hrs by fluorescence based assay; type: ADME, organism-based; conditions: in vivo
[22] = Drug localization in mitochondria of human Ht-29 cells at 0.5 uM measured after 1 hr by Mito-GFP based confocal laser scanning microscopy; type: ADME; conditions: ht-29, 1 h
[23] = Half life in Sprague-Dawley rat at 2 mg/kg, iv measured upto 24 hrs by fluorescence based assay; type: ADME, organism-based; conditions: in vivo
HT-29 [24] = assay: Antitumor activity against human HT-29 cells xenografted in BALB/c mouse assessed as reduction in tumor volume at 2 mg/kg, iv after 2 hrs irradiated with light and measured on day 24; type: functional, organism-based
[25] = Drug localization in mitochondria of human WI38 cells at 0.5 uM measured after 1 hr by Mito-GFP based confocal laser scanning microscopy; type: ADME; conditions: wi-38, 1 h
[26] = Drug localization in lysosome of human HT-29 cells at 0.5 uM measured after 1 hr by LAMP1-GFP based confocal laser scanning microscopy; type: ADME, subcellular; conditions: ht-29, 1 h
HT-29 [27] = assay: Potency index, ratio of IC50 of methylene blue to IC50 of compound for cytotoxicity against human HT-29 cells assessed as reduction in cell viability incubated for 1 hr followed by light irradiation at 3.2 J/cm2 for 30 sec and measured after 24 hrs by MTT assay; type: functional
[28] = Toxicity in BALB/c mouse xenografted with human HT-29 cells assessed as damage on lung at 2 mg/kg, iv after 2 hrs irradiated with light and measured on day 24; type: organism-based; conditions: in vivo
[29] = AUC (0 to infinity) in Sprague-Dawley rat at 2 mg/kg, iv measured upto 24 hrs by fluorescence based assay; type: ADME, organism-based; design: dose 2 mg/kg, route intravenous, time infinity; conditions: in vivo
HT-29 [30] = assay: Antitumor activity against human HT-29 cells xenografted in BALB/c mouse assessed as reduction in tumor growth at 2 mg/kg, iv after 2 hrs irradiated with light and measured on day 5; type: functional, organism-based
[31] = Clearance in Sprague-Dawley rat at 2 mg/kg, iv measured upto 24 hrs by fluorescence based assay; type: ADME, organism-based; conditions: in vivo
[32] = Toxicity in BALB/c mouse xenografted with human HT-29 cells assessed as damage on liver at 2 mg/kg, iv after 2 hrs irradiated with light and measured on day 24; type: organism-based; conditions: in vivo
HT-29 [33] = assay: Antitumor activity against human HT-29 cells xenografted in BALB/c mouse assessed as reduction in tumor volume at 2 mg/kg, iv after 2 hrs irradiated with light and measured on day 5; type: functional, organism-based
[34] = Toxicity in BALB/c mouse xenografted with human HT-29 cells assessed as damage on heart tissue at 2 mg/kg, iv after 2 hrs irradiated with light and measured on day 24; type: organism-based; conditions: in vivo
HT-29 [35] = assay: Induction of morphological changes in nucleus of human HT-29 cells at 0.5 uM incubated in dark for 1 hr followed by irradiated with LED light for 30 sec and measured after 18 hrs by Hoechst 33342 staining based fluorescence microscopy; type: functional, cell-based
WI-38 = assay: Cytotoxicity against human WI38 cells assessed as reduction in cell viability incubated for 24 hrs in dark by MTT assay; type: cell-based; conditions: WI-38, 24 h
[36] = Cmax in Sprague-Dawley rat at 2 mg/kg, iv measured upto 24 hrs by fluorescence based assay; type: ADME, organism-based; design: dose 2 mg/kg, route intravenous; conditions: in vivo

With `CCCCCCCNc1cc2[s+]c3cc(N(CC)CC)ccc3nc2c2ccc(C)nc12.[Cl-]` the “Ratio IC50” value (HT-29 [1]) was 8.47, the Drug uptake [2] was “Active” and the “Ratio IC50” value (MCF7 [3]) was 3.8. It also gave a pIC50 (MCF7 [4]) of 5.42, a pIC50 (HT-29 [5]) of 5.98 and a pIC50 (A549 [6]) of 5.43. The pIC50 (MCF7 [7]) was 4.84, the pIC50 (A549 [8]) was 4.77 and the “Ratio IC50” value (A549 [9]) was 4.6. For the same compound, the Activity (HT-29 [10]) was “Active”, the Stability [11] was “Stable” and the Activity [12] was 0.08 to 0.14. For the same compound, the Activity (HT-29 [13]) was “Active” and the pIC50 (HT-29 [14]) was 5.05.

With `CN(C)c1ccc2nc3ccc(N(C)C)cc3[s+]c2c1.[Cl-]` [METHYLENE BLUE ANHYDROUS] the Drug uptake [15] was “Active”, the pIC50 (HT-29 [5]) was 5.04 and the pIC50 (HT-29 [14]) was less than 5.00.

With `CCN(CC)c1ccc2nc3c(cc(N)c4nc(C)ccc43)[s+]c2c1.[Cl-]` the “Ratio IC50” value (HT-29 [1]) was 21.9, the Drug uptake [2] was “Active” and the “Ratio IC50” value (MCF7 [3]) was 2.2. The pIC50 (MCF7 [4]) was 6.30, the pIC50 (HT-29 [5]) was 6.68 and the pIC50 (A549 [6]) was 5.74. For the same compound, the pIC50 (MCF7 [7]) was 5.96, the pIC50 (A549 [8]) was 5.19 and the “Ratio IC50” value (A549 [9]) was 3.6. For the same compound, the Activity (HT-29 [10]) was “Active”, the Stability [11] was “Stable” and the Activity [12] was 0.08 to 0.14. For the same compound, the Activity (HT-29 [13]) was “Active” and the pIC50 (HT-29 [14]) was 5.34.

With `CCCNc1cc2[s+]c3cc(N(CC)CC)ccc3nc2c2ccc(C)nc12.[Cl-]` the Activity (HT-29 [16]) was “Non-Toxic”, the Activity [17] was “Non-Toxic” and the Activity [18] was “Non-Toxic”. For the same compound, the “Ratio IC50” value (HT-29 [1]) was 53.8, the Drug uptake [2] was “Active” and the MRT inf [19] was 12.4 h. The “Ratio IC50” value (MCF7 [3]) was 5.1, the Drug uptake [15] was “Not Active” and the pIC50 (MCF7 [4]) was 6.43. For the same compound, the pIC50 (HT-29 [5]) was 7.41, the Drug uptake [20] was “Active” and the AUCt [21] was 3.78 mg/h/L. For the same compound, the Drug uptake [22] was “Not Active”, the half-life [23] was 7.81 h and the Activity (HT-29 [24]) was “Active”. The pIC50 (A549 [6]) was 6.47, the Drug uptake [25] was “Not Active” and the Drug uptake [26] was “Active”. For the same compound, the pIC50 (MCF7 [7]) was 5.72, the “Ratio IC50” value (HT-29 [27]) was 235 and the Activity [28] was “Non-Toxic”. The AUC [29] was 4550 ng·h/mL, the Activity (HT-29 [30]) was “Active” and the pIC50 (A549 [8]) was 5.51. The “Ratio IC50” value (A549 [9]) was 9.1, the clearance [31] was 7.33 mL/min/kg and the Activity [32] was “Non-Toxic”. The Activity (HT-29 [33]) was “Active”, the Activity (HT-29 [10]) was “Active” and the Stability [11] was “Stable”. The Activity [34] was “Non-Toxic”, the Activity [12] was 0.08 to 0.14 and the Activity (HT-29 [35]) was “Active”. For the same compound, the Activity (HT-29 [13]) was “Active”, the pIC50 (WI-38) was less than 5.00 and the Cmax [36] was 2180 ng/mL. It also gave a pIC50 (HT-29 [14]) of 5.68.
